The values below come from patent US20260317319A1, “NOVEL ERGOLINES AND METHODS OF TREATING MOOD DISORDERS” (Gilgamesh Pharma Inc., priority 2023, published 2026).

Where two headings read alike, the source gives them in different places. Some results are limits rather than exact numbers.

The target in series [1] is T1, 5-HT1B receptor (Homo sapiens, UniProt P28222).
T1 construct: expressed in transfected cells
Put plainly: cAMP accumulation functional assay at 5-HT1B. Particulars: agonist, cAMP accumulation; for Emax: max dose, read-out: 5-HT1B % Act @ Max Dose. It counts as cell-based. The method, then: Functional Assay at 5-HT1B. Agonist activity at 5-HT1B was determined using a CAMP accumulation protocol at WuXi AppTec (Hong Kong) Limited according to their standard protocols. Briefly, stably transfected cells were plated in an OptiPlate-384 well plate, incubated at RT for 60 mins, and cAMP standard solution (800 nM, 10 μL) was added to the blank well. Then, 10 μL detection reagent was added to each well, the plate incubated for 60 mins at RT, and the plate read using En Vision.
A general note: Changes in cAMP serve as a functional read-out for many G protein-coupled receptors.

Series [2] has as its target T2, 5-HT1A receptor (Homo sapiens, UniProt P08908).
T2 construct: expressed in transfected cells; host or cells: CHO cells, stably transfected
T2 sequence (P08908 1-422): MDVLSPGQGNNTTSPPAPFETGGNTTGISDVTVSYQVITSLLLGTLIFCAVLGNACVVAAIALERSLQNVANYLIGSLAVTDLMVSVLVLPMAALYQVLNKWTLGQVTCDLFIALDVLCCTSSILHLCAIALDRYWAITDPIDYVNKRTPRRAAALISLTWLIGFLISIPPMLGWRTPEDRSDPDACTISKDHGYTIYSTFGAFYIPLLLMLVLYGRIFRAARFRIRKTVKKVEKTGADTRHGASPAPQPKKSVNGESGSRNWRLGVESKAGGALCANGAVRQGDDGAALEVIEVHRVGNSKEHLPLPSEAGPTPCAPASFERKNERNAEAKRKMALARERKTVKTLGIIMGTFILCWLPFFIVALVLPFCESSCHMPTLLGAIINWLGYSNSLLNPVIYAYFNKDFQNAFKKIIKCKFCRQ
Put plainly: cell-based. Particulars: agonist, Ca2+ flux; for Emax: CHO, CHO cells with Gα15, max dose, read-out: 5-HT1A % Act @ Max Dose; for EC50: CHO cells with Gα15. Put shortly: (§1)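 FLIPR Tetra fluorescence read-out of calcium flux after compound addition. Receptor-expressing stable lines were used (HEK293 for 2A/2B; CHO with Gα15 for 1A), dye-loaded with Fluo-4 Direct and 2.5 mM final probenecid, 50 min at 37 °C.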

Series [3] deals with T3, 5-HT2A receptor (Homo sapiens, UniProt P28223). Put plainly: cell-based. It counts as cell-based. More on the design: expressed in transfected cells; host or cells: HEK293, stably transfected. Particulars: Ca2+ flux; for Emax: HEK293, agonist, HEK293, max dose, read-out: 5-HT2A % Act @ Max Dose; for EC50: agonist, HEK293. Put shortly:
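Receptor agonism was assessed as intracellular calcium mobilization in stably transfected cells, with CHO cells additionally carrying Gα15 for the 5-HT1A readout. Calcium was monitored with Fluo-4 Direct dye.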
(In general: Calcium flux is commonly read through the fluorescence of an indicator in the cells.)

Series [4] deals with T4, 5-HT2B receptor (Homo sapiens, UniProt P41595).
T4 construct: expressed in transfected cells; host or cells: HEK293, stably transfected
T4 sequence (P41595 whole entry): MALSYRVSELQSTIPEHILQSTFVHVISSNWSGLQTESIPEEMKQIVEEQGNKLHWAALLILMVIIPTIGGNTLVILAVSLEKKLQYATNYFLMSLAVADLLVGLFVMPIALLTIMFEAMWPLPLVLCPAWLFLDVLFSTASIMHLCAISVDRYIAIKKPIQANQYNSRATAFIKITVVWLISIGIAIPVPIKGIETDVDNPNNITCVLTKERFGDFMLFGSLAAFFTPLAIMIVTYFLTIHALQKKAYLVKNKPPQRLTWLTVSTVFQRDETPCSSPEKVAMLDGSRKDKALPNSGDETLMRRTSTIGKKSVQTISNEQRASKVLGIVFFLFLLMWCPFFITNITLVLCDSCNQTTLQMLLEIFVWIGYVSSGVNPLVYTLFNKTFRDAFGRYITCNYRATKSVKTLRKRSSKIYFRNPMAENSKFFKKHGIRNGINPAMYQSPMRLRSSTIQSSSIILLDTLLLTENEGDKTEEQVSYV
Put plainly: cell-based. Particulars: Ca2+ flux; for Emax: HEK293, agonist, HEK293, max dose, read-out: 5-HT2B % Act @ Max Dose; for EC50: agonist, HEK293. The series is classed as cell-based. The method, boiled down: as §1

The target of series [5] is T3, 5-HT2A receptor. The experiment in a line: biochemical. The series is classed as binding. More on the design: expressed in transfected cells; host or cells: HEK293, stably transfected. Particulars: for potency in receptor binding: radioligand binding, 5-HT2A; for Ki: [3H]ketanserin 1 nM, HEK293 stable cell line, 1 h, 25 °C. The method, boiled down:
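Binding affinity comes from a [^3H]ketanserin radioligand assay run under literature-adapted conditions.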

The target in series [6] is T3, 5-HT2A receptor. The experiment in a line: cell-based. The series is classed as cell-based. The settings on record: agonist, beta-arrestin recruitment; for EC50: PathHunter, read-out: 5-HT2A Arrestin EC50; for Emax: max dose, read-out: 5-HT2A Arrestin % Act @ Max Dose. The method, then: Arrestin Functional Assay at 5-HT2A. Recruitment of beta-arrestin was determined using a PathHunter assay at Eurofins DiscoverX (Fremont, CA) according to their standard protocols. PathHunter GPCR beta-arrestin assays take advantage of DiscoverX's proprietary Enzyme Fragment Complementation technology. The GPCR is fused in frame with a small enzyme donor fragment ProLink™ (PK) and co-expressed in cells stably expressing a fusion protein of beta-arrestin and the larger, N-terminal deletion mutant of beta-galactosidase. Activation of the GPCR (5-HT2A receptor in this case) stimulates binding of beta-arrestin to the PK-tagged GPCR and forces complementation of the two enzyme fragments, resulting in the formation of an active beta-galactosidase enzyme. This interaction leads to an increase in enzyme activity that can be measured using chemiluminescent PathHunter Detection Reagents. Briefly, PathHunter cells expressing 5-HT2A receptors were seeded in a volume of 20 μL into 384-well plates and incubated at 37° C. for the appropriate time prior to testing. […] Plates were then imaged on a microplate reader and the agonist activity was calculated using the following formula: % Activity=100%×(mean RLU of test sample-mean RLU of vehicle control)/(mean MAX control ligand-mean RLU of vehicle control), where RLU=relative light units.
In general terms: Arrestin recruitment assays detect the binding of arrestin to an activated receptor.

A short description of series [7]: in vitro. The settings on record: RLM (male Sprague-Dawley) 0.50 mg/mL, NADPH 1 mM, 1 μM compound, pH 7.4, 37° C., 60 min; for microsomal CLint / half-life: rat, microsomes; for microsomal CLint: read-out: Intrinsic clearance (Clint); for half-life: read-out: half-life (t1/2). It counts as in vitro ADME, rat. The text has this:
RLM Stability Pooled RLM from male Sprague-Dawley rats (Xenotech R1000) were used.

A short description of series [8]: in vitro. It counts as in vitro ADME, mouse. The settings on record: MLM (male CD-1) 0.50 mg/mL, NADPH 1 mM, 1 μM compound, pH 7.4, 37° C., 60 min; for microsomal CLint / half-life: mouse, microsomes; for microsomal CLint: read-out: Intrinsic clearance (Clint); for half-life: read-out: half-life (t1/2). The text has this:
MLM Stability Pooled MLM from male CD-1 mice (BIOIVT M00501) were used.

A short description of series [9]: in vitro. The series is classed as in vitro ADME, human. Particulars: HLM 0.50 mg/mL, NADPH 1 mM, 1 μM compound, pH 7.4, 37° C., 60 min; for microsomal CLint / half-life: human, microsomes; for microsomal CLint: read-out: Intrinsic clearance (Clint); for half-life: read-out: half-life (t1/2).

T1 sequence (P28222 whole entry): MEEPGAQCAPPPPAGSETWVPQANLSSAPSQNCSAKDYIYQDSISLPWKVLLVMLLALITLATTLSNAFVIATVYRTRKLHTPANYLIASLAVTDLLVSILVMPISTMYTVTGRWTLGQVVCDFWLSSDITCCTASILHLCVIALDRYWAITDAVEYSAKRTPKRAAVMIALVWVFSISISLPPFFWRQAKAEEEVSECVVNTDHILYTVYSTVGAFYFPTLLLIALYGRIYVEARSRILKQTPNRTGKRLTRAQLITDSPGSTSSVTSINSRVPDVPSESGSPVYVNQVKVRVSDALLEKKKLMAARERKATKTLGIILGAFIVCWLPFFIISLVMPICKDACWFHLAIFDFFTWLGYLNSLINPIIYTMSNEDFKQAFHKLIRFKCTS
T3 sequence (P28223 whole entry): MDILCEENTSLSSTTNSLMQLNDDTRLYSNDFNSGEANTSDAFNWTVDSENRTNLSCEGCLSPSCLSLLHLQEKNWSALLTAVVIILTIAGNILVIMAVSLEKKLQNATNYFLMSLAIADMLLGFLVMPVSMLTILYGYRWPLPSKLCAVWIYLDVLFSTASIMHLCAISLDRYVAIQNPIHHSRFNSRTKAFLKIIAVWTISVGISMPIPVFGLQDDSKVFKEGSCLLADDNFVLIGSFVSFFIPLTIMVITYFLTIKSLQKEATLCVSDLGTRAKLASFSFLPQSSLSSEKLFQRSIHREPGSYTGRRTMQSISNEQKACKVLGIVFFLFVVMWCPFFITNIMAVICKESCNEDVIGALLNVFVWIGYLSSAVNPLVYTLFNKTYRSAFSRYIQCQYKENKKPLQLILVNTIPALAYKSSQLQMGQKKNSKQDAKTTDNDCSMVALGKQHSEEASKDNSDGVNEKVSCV

Turning to `CCCN1C[C@H](C(=O)N(CC)CC)C=C2c3cccc4c3C(CN4)C[C@H]21` (mixture of isomers) [Compound 36, (6aR,9R)—N,N-diethyl-7-propyl-4,5,5a,6,6a,7,8,9-octahydroindolo[4,3-fg]quinoline-9-carboxamide], the Emax in [1] was 97.5%; in series [2], 88.7%; in [3], 77.5%; in series [4], 111%. The “potency in receptor binding” value in [5] is on record as “reduced in potency compared to their dehydro counterparts”.
As for `CCN(CC)C(=O)[C@@H]1C=C2c3cccc4c3C(CN4)C[C@H]2N(C)C1` (mixture of isomers) [Compound 37, (6aR,9R)—N,N-diethyl-7-methyl-4,5,5a,6,6a,7,8,9-octahydroindolo[4,3-fg]quinoline-9-carboxamide], the Emax in series [1] worked out at 90.7%; in series [2] it was 109%; in series [3], 76.4%; in [4], 24.1%. In [5], the “potency in receptor binding” value is “reduced in potency compared to their dehydro counterparts”.
What is called EC50 is the midpoint of the concentration-response curve. As to `CCN(CC)C(=O)[C@@H]1C=C2c3cccc4[nH]cc(c34)C[C@H]2N(Cc2ccccn2)C1` [Compound 22, (6aR,9R)—N,N-diethyl-7-(pyridin-2-ylmethyl)-4,6,6a,7,8,9-hexahydroindolo[4,3-fg]quinoline-9-carboxamide], the Emax in series [1] is 89.2%; in [6], 40.6%; in [2], 57.3%; in series [3], 64.5%; in series [4], 7.74%. Besides, the half-maximal effective concentration (EC50) in series [6] is 6.33 nM. For the same compound, the results for the “Intrinsic clearance (Clint)” value in [7], in series [8] and in [9] were 104.8 µL/min/mg, 150.0 µL/min/mg and 58.2 µL/min/mg, respectively. Further, the “half-life (t1/2)” value in series [7] turned out to be 13.2 min; in series [8], 9.2 min; in series [9] it was 23.8 min.
`CCN(CC)C(=O)[C@@H]1C=C2c3cccc4[nH]cc(c34)C[C@H]2N(CCc2ccccn2)C1` [Compound 23, (6aR,9R)—N,N-diethyl-7-(2-(pyridin-2-yl)ethyl)-4,6,6a,7,8,9-hexahydroindolo[4,3-fg]quinoline-9-carboxamide]: the Emax in series [1] came out at 83.7%; in [6] it was 65.2%; in [2], 46.2%; in series [3], 85.4%; in series [4], 12.5%. Also, the EC50 in [6] was 5.97 nM. The “Intrinsic clearance (Clint)” value was found to be 331.7 µL/min/mg in series [7], 768.7 µL/min/mg in [8] and 193.3 µL/min/mg in series [9]. Moreover, the entries for the “half-life (t1/2)” value in series [7], in [8] and in series [9] were 4.2 min, 1.8 min and 7.2 min, respectively.
Broadly, the Ki is the equilibrium dissociation constant of an inhibitor or competing ligand from its target. A higher Ki goes with weaker binding. Turning to `CCN(CC)C(=O)[C@@H]1C=C2c3cccc4[nH]cc(c34)C[C@H]2N(Cc2ccncc2)C1` [Compound 51, (6aR,9R)—N,N-diethyl-7-(pyridin-4-ylmethyl)-4,6,6a,7,8,9-hexahydroindolo[4,3-fg]quinoline-9-carboxamide], the EC50 in [1] is 190 nM; in series [2] it was 1460 nM; in [3] it was 97.8 nM; in series [4] it was above 100000 nM. In addition, the Emax in [1] was found to be 89.1%; in series [2] it was 100%; in [3], 102%; in series [4], 19.3%. Besides, the microsomal CLint was 73.6 µL/min/mg in series [7], 480 µL/min/mg in series [8] and 34.3 µL/min/mg in series [9]. The half-life turned out to be 18.8 min in series [7], 2.9 min in [8] and 40.4 min in series [9]. The same compound registered a Ki in [5] of 15.6 nM.
With `CCN(CC)C(=O)[C@@H]1C=C2c3cccc4[nH]cc(c34)C[C@H]2N(Cc2cccnc2)C1` [Compound 55, (6aR,9R)—N,N-diethyl-7-(pyridin-3-ylmethyl)-4,6,6a,7,8,9-hexahydroindolo[4,3-fg]quinoline-9-carboxamide], the EC50 is 575 nM in series [1], 4090 nM in series [2], 158 nM in [3] and above 100000 nM in series [4]. Also, the Emax in series [1] came to 82.5%; in series [2] it was 108%; in series [3] it was 87.8%; in series [4] it was 25.7%. The microsomal CLint in series [7] is 103 µL/min/mg; in series [8], 543 µL/min/mg; in [9], 56 µL/min/mg. The values for the half-life in series [7], in series [8] and in series [9] were 13.4 min, 2.6 min and 24.8 min, respectively. This compound also came in with a Ki in series [5] of 39.7 nM.
Take `CCN(CC)C(=O)[C@@H]1C=C2c3cccc4[nH]cc(c34)C[C@H]2N(Cc2ccc(F)c(OC)c2)C1` [Compound 60, (6aR,9R)—N,N-diethyl-7-(4-fluoro-3-methoxybenzyl)-4,6,6a,7,8,9-hexahydroindolo[4,3-fg]quinoline-9-carboxamide]: the EC50 in [1] is above 10000 nM; in series [2], 36400 nM; in series [3], 1380 nM; in series [4], above 100000 nM. Further, the Emax came to 31% in series [1], 53.1% in series [2], 102% in series [3] and 23.8% in series [4]. The microsomal CLint in series [7] stood at 152 µL/min/mg; in [8], 295 µL/min/mg; in [9] it was 69.1 µL/min/mg. The half-life was 9.1 min in series [7], 4.7 min in [8] and 20.1 min in [9]. In addition, the inhibition constant Ki in [5] was found to be 6.18 nM.
